The text below walks through data of patent US10947213B1 (Merck Patent GmbH, priority 2015, dated 2021).

This assay deals with T1, TLR7/NFKb HEK cells (Homo sapiens, UniProt Q9NYK1).
T1 construct: expressed in transfected cells; host or cells: HEK cells (TLR7/NFKb reporter line)
T1 sequence (Q9NYK1 27-1049): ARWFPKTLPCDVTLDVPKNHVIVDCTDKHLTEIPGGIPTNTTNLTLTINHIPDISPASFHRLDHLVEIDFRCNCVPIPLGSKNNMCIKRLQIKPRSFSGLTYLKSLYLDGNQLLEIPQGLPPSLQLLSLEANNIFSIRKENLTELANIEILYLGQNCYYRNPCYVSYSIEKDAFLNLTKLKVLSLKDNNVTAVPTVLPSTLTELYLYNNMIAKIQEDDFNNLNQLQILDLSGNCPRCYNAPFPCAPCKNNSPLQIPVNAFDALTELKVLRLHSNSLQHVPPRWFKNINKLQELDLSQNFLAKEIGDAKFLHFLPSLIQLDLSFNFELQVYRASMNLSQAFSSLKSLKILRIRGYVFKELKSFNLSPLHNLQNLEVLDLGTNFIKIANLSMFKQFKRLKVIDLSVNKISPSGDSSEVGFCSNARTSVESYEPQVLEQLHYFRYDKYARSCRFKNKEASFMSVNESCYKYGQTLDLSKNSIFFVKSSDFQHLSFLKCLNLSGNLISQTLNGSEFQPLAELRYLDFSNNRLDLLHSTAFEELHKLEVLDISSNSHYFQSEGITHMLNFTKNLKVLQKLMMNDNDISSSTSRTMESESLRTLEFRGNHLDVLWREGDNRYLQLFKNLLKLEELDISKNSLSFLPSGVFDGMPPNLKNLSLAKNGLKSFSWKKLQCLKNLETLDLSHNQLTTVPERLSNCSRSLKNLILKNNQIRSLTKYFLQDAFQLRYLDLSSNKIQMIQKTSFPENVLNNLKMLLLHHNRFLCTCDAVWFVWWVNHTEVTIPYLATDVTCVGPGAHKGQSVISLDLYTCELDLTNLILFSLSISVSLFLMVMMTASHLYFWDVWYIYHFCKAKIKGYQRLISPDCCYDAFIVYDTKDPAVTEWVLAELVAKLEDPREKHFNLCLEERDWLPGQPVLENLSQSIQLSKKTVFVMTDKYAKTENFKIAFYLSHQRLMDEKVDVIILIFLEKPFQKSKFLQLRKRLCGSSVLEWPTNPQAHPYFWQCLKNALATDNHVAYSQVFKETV
As to the kind of experiment: HEK Cell Assay (TLR7/NFKb reporter, Steady-Glo luciferase readout). The format is cell-based. The conditions noted are these: 30 min compound preincubation, then R*48 agonist for 5 hours, read-out: Potency. The gist of the method: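 Steady-Glo luminescence after 5 h stimulation with R*48 agonist, following 30 min compound preincubation. Assay run in HEK cells carrying a TLR7/NFKb luciferase reporter, plated at 5000 cells/well and grown 24 h at 37° C (10% CO2) before treatment.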

Structures can show the parent of a compound that is named as a salt.

Consider `N#Cc1ccc(N2C[C@H](NC(=O)CC3CCC(F)(F)CC3)C[C@H](C(F)(F)F)C2)c2cccnc12` [Compound 584, N-[(3R,5S)-1-(8-Cyano-quinolin-5-yl)-5-trifluoromethyl-piperidin-3-yl]-2-(4,4-difluoro-cyclohexyl)-acetamide], for which the IC50 was less than 1000 nM.

As for `CNCC(=O)N[C@@H]1C[C@H](C)CN(c2ccc(C#N)c3nccnc23)C1` [Compound 28, N-((3R,5S)-1-(8-cyanoquinoxalin-5-yl)-5-methylpiperidin-3-yl)-2-(methylamino)acetamide hydrochloride], the IC50 was less than 1000 nM.

With `C[C@H]1C[C@@H](NC(=O)Cn2cccn2)CN(c2ccc(C#N)c3nccnc23)C1` [Compound 169, N-[(3R,5S)-1-(8-cyanoquinoxalin-5-yl)-5-methylpiperidin-3-yl]-2-(1H-pyrazol-1-yl)acetamide], the IC50 is less than 1000 nM.

For the molecule `C[C@H]1C[C@@H](N)CN(c2ccc(C#N)c3ncncc23)C1` [Compound 74, 5-((3R,5S)-3-Amino-5-methyl-piperidin-1-yl)-quinazoline-8-carbonitrile], the IC50 is less than 1000 nM.

For the molecule `COCCN[C@@H]1C[C@H](C)CN(c2ccc(C#N)c3nccnc23)C1` [Compound 19, 8-((3R,5S)-3-(2-methoxyethylamino)-5-methylpiperidin-1-yl)quinoxaline-5-carbonitrile], the IC50 was less than 1000 nM.

Take `CC(C)[C@@H](N)C(=O)N[C@@H]1C[C@H](C)CN(c2ccnc3nccnc23)C1` [Compound 104, (2R)-2-amino-3-methyl-N-[(3R,5S)-5-methyl-1-[pyrido[2,3-b]pyrazin-8-yl]piperidin-3-yl]butanamide]: the IC50 is more than 10000 nM.

Regarding `CN(C)C(=O)CCC(=O)N1CCN(c2ccc(C#N)c3nccnc23)CC1` [Compound 454, 4-[4-(8-Cyano-quinoxalin-5-yl)-piperazin-1-yl]-N,N-dimethyl-4-oxo-butyramide], the IC50 fell in the range of 1000 to 10000 nM.

Take `C[C@H]1C[C@@H](NC(=O)C(N)C(F)(F)F)CN(c2ccc(C(F)(F)F)c3ncccc23)C1` (single isomer, unassigned) [Compound 198]: the IC50 was less than 1000 nM.

Regarding `C[C@H]1C[C@@H](NC(=O)CN2CCOCC2)CN(c2ccc(C(F)(F)F)c3nccnc23)C1` [Compound 249, N-[(3R,5S)-5-methyl-1-[8-(trifluoromethyl)quinoxalin-5-yl]piperidin-3-yl]-2-(morpholin-4-yl)acetamide], the IC50 was less than 1000 nM.

For `CCN(CC)CCNC(=O)N1CCN(c2ccc(C#N)c3nccnc23)CC1` [Compound 453, 4-(8-Cyano-quinoxalin-5-yl)-piperazine-1-carboxylic acid (2-diethylamino-ethyl)-amide], the IC50 is less than 1000 nM.

Consider `CC(C)[C@H](N)C(=O)N[C@@H]1C[C@H](C)CN(c2ccc(C#N)c3nccnc23)C1` [Compound 103, (2S)-2-amino-N-[(3R,5S)-1-(8-cyanoquinoxalin-5-yl)-5-methylpiperidin-3-yl]-3-methylbutanamide], for which the IC50 is less than 1000 nM.

With `CC(C)[C@H](O)C(=O)N[C@@H]1C[C@H](C)CN(c2ccc(C(F)(F)F)c3ncccc23)C1` [Compound 194, (2S)-2-hydroxy-3-methyl-N-[(3R,5S)-5-methyl-1-[8-(trifluoromethyl)quinolin-5-yl]piperidin-3-yl]butanamide], the IC50 is less than 1000 nM.

For the molecule `CC1CC(N)CN(c2ccc(F)c3nccnc23)C1` (single isomer, unassigned) [Compound 339], the IC50 was less than 1000 nM.

For `CC(C(=O)N[C@@H]1C[C@H](C)CN(c2ccc(C(F)F)c3ncccc23)C1)N1CC(N)C1` (stereo partly drawn) [Compound 305, 2-(3-aminoazetidin-1-yl)-N-[(3R,5S)-1-[8-(difluoromethyl)quinolin-5-yl]-5-methylpiperidin-3-yl]propanamide], the IC50 is less than 1000 nM.

As to `C[C@H]1C[C@@H](N2CC[C@@H](N)C2=O)CN(c2ccnc3nccnc23)C1` [Compound 42, (3R)-3-amino-1-[(3R,5S)-5-methyl-1-[pyrido[2,3-b]pyrazin-8-yl]piperidin-3-yl]pyrrolidin-2-one], the IC50 is more than 10000 nM.

Consider `C[C@@H]1CN(c2ccnc3nccnc23)C[C@H](CN2CCC(N(C)C)CC2)O1` [Compound 55, N,N-dimethyl-1-(((2S,6R)-6-methyl-4-(pyrido[2,3-b]pyrazin-8-yl)morpholin-2-yl)methyl)piperidin-4-amine], for which the IC50 was less than 1000 nM.

For `C[C@H]1C[C@@H](NC(=O)C2CC(F)(F)C2)CN(c2ccc(C(F)(F)F)c3nccnc23)C1` [Compound 257, 3,3-difluoro-N-[(3R,5S)-5-methyl-1-[8-(trifluoromethyl)quinoxalin-5-yl]piperidin-3-yl]cyclobutane-1-carboxamide], the IC50 lay within 1000 to 10000 nM.

For the molecule `CN1CCN(CC(=O)NC2CN(c3ccc(C#N)c4nccnc34)CC(F)(F)C2)CC1` (stereo not shown) [Compound 503, N-[1-(8-Cyano-quinoxalin-5-yl)-5,5-difluoro-piperidin-3-yl]-2-(4-methyl-piperazin-1-yl)-acetamide], the IC50 is less than 1000 nM.

For `C[C@H]1C[C@@H](N)CN(c2ccc(F)c3ncccc23)C1` [Compound 341, (3R,5S)-1-(8-fluoroquinolin-5-yl)-5-methylpiperidin-3-amine], the IC50 was less than 1000 nM.

On to `N#Cc1ccc(N2CCC(C(=O)NCCN3CCC(F)(F)CC3)CC2)c2cccnc12` [Compound 427, 1-(8-Cyano-quinolin-5-yl)-piperidine-4-carboxylic Acid [2-(4,4-difluoro-piperidin-1-yl)-ethyl]-amide], for which the IC50 fell in the range of 1000 to 10000 nM.

Take `C[C@H]1C[C@@H](NC(=O)CN(C)C)CN(c2ccc(C(F)(F)F)c3nccnc23)C1` [Compound 254, 2-(dimethylamino)-N-[(3R,5S)-5-methyl-1-[8-(trifluoromethyl)quinoxalin-5-yl]piperidin-3-yl]acetamide]: the IC50 was less than 1000 nM.

As for `CCN1CCC(NC(=O)C2CN(c3ccc(C#N)c4ncccc34)CC(F)(F)C2)CC1` (stereo not shown) [Compound 532, 1-(8-Cyano-quinolin-5-yl)-5,5-difluoro-piperidine-3-carboxylic Acid (1-ethyl-piperidin-4-yl)-amide], the IC50 was less than 1000 nM.

For the molecule `C[C@H]1C[C@@H](NC(=O)CC(C)(C)CN)CN(c2ccc(C(F)F)c3nccnc23)C1` [Compound 327, 4-amino-N-[(3R,5S)-1-[8-(difluoromethyl)quinoxalin-5-yl]-5-methylpiperidin-3-yl]-3,3-dimethylbutanamide], the IC50 is less than 1000 nM.

`C[C@H]1C[C@@H](N)CN(c2ccc(C(F)F)c3ncccc23)C1` [Compound 68, (3R,5S)-1-[8-(difluoromethyl)quinolin-5-yl]-5-methylpiperidin-3-amine]: the IC50 was less than 1000 nM.

For the molecule `C[C@H]1C[C@@H](NC(=O)CN)CN(c2ccnc3nccnc23)C1` [Compound 34, 2-amino-N-((3R,5S)-5-methyl-1-(pyrido[2,3-b]pyrazin-8-yl)piperidin-3-yl)acetamide], the IC50 was more than 10000 nM.

For the molecule `CC(C(=O)N[C@@H]1C[C@H](C)CN(c2ccc(C(F)(F)F)c3nccnc23)C1)N1CC(N)C1` (single isomer, unassigned) [Compound 370], the IC50 was less than 1000 nM.

Consider `C[C@H]1C[C@@H](NC(=O)CN)CN(c2ccc(C#N)c3nccnc23)C1` [Compound 35, 2-amino-N-((3R,5S)-1-(8-cyanoquinoxalin-5-yl)-5-methylpiperidin-3-yl)acetamide hydrochloride], for which the IC50 is less than 1000 nM.

In the case of `C[C@H]1C[C@@H](NC(=O)CNC(C)(C)C)CN(c2ccnc3nccnc23)C1` [Compound 143, 2-(tert-butylamino)-N-[(3R,5S)-5-methyl-1-[pyrido[2,3-b]pyrazin-8-yl]piperidin-3-yl]acetamide], the IC50 was more than 10000 nM.

Turning to `C[C@H]1C[C@@H](NC2CCNC2=O)CN(c2ccnc3nccnc23)C1` (stereo partly drawn) [Compound 127, 3-[[(3R,5S)-5-methyl-1-[pyrido[2,3-b]pyrazin-8-yl]piperidin-3-yl]amino]pyrrolidin-2-one], the IC50 was more than 10000 nM.

Regarding `C[C@H]1C[C@@H](NC(=O)CN2CCCN(C)CC2)CN(c2ccc(C(F)F)c3nccnc23)C1` [Compound 326, N-[(3R,5S)-1-[8-(difluoromethyl)quinoxalin-5-yl]-5-methylpiperidin-3-yl]-2-(4-methyl-1,4-diazepan-1-yl)acetamide], the IC50 was less than 1000 nM.

On to `CN(C)CC(=O)NCC1CCN(c2ccnc3nccnc23)CC1` [Compound 394, 2-Dimethylamino-N-(1-pyrido[2,3-b]pyrazin-8-yl-piperidin-4-ylmethyl)-acetamide], for which the IC50 was 1000 to 10000 nM.
